Experimental data taken from patent US20100290997A1, “Imaging Agents and Methods” (priority 2006, published 2010).
Where a SMILES comes first, the peptide text is derived from it.

How the values were obtained:
cathepsin B = biological target: T1, cathepsin B (Homo sapiens, UniProt P07858); assay: Inhibition of biodegradation of L-PG-NIR813 in presence of CB inhibitor II; type: biochemical; conditions: 0.2 unit/mL cathepsin B, 10 μM eq. NIR813
T1 construct: purchased Sigma-Aldrich (St. Louis, Mo.)
Description: L-PG-NIR813 with different loading 8.3% and 10%, CB and CB inhibitor II were dissolved in assay buffer respectively. The reaction mixture (100 μL) in each well was composed of 10 μM L-PG-NIR813 probe and 0.2 units/mL CB. The CB inhibitor II was serially diluted in the assay buffer to obtain concentrations ranging from 240 μM to 77 nM. The microwell assay plate was incubated at 37° C. for 24 hr. At predetermined time intervals, the inhibition of biodegradation was examined using Li-Cor Odyssey imager.

[1] = Determination of relaxivity (T1, T2) at 4.7 Tesla; type: physicochemical; conditions: 4.7T MRI experimental scanner
Description: (§1) Solutions of PG-Benz-DTPA-Gd-IR783 were prepared in water at gadolinium concentrations of 0.005, 0.01, 0.02, 0.04, 0.08, and 0.16 mM. Spin lattice (T1) and spin-spin (T2) relaxivities were measured at 4.7 Tesla on 4.7T Bruker Biospec 47/40USR (City, State) using inversion recovery and mutiecho T2-weight pulse sequences. Relaxivities (R1 or R2 in mM^−1s^−1) were obtained from linear least square determination of the slopes of 1/T1 vs [Gd] or 1/T2 vs [Gd] plots.
as §1, with “PG-DTPA-Gd-NIR813” for “PG-Benz-DTPA-Gd-IR783”, “(Bruker Biospin Corp., Billerica, Mass.)” for “47/40USR (City, State)”

[2] = Fluorescence emission spectra; type: physicochemical; conditions: methanol solution; for emission wavelength (maximum): excited at 766 nm
Description: Analytical high-performance liquid chromatography (HPLC) was carried out on an Agilent 1100 system (Wilmington, Del.) equipped with a Vydac peptide and protein analytic C-18 column (Anaheim, Calif.). Sample was eluted with water and acetonitrile containing 0.1% TFA varying from 10% to 80% over 30 min. Fluorescence intensity was measured by Spex Fluorolog spectrofluorimeter (Jobin Yvon Inc, Edison, N.J.).
The fluorescence emission spectra of the synthesized contrast agent was obtained using a Spex Fluorolog spectrofluorimeter (Horiba Yvon Jobin, N.J.).

With `CC(=O)N[C@@H](CC(C)C)C(=O)N[C@H](C(=O)N[C@H](C=O)CCCCN)C(C)C` [CB inhibitor, Ac-LVK-CHO] (Ac-Leu-Val-Lys-aldehyde) the “inhibition of PG-NIR813 degradation by CB” value (cathepsin B) was “inhibited by CB inhibitor in a dose-dependent manner”.
With `O=C([O-])CN(CCN(CC(=O)[O-])CC(=O)O)CCN(CC(=O)[O-])CC(=O)O.[Gd+3]` [DTPA-Gd] the “T1 relaxivity (r1)” value [1] was 4.8 mmol⁻¹ s⁻¹.
For `CC1(C)C(=CC=C2CCCC(C=CC3=[N+](CCCCS(=O)(=O)[O-])c4ccccc4C3(C)C)=C2Cl)N(CCCCS(=O)(=O)[O-])c2ccccc21.[Na+]` [IR783], the Stokes shift [2] was 32 nm, the excitation wavelength [2] was 766 nm and the “emission wavelength (maximum)” value [2] was 798 nm.
With `CC1(C)C(/C=C/C2=C(Sc3ccc(C(=O)NCCCCCN)cc3)C(=C/C=C3/N(CCCCS(=O)(=O)O)c4ccccc4C3(C)C)/CCC2)=[N+](CCCCS(=O)(=O)O)c2ccccc21` [NIR813, IR-783-S-Ph-CONH(CH2)5NH2] the Stokes shift [2] was 47 nm, the excitation wavelength [2] was 766 nm and the “emission wavelength (maximum)” value [2] was 813 nm.
